The values below come from US20250223268A1, “4-Methylsulfonylbenzamide Compound, Preparation Method, Herbicidal Composition And Use” (Jiangsu Flag Chemical Industry Co., Ltd., priority 2022, published 2025).

Common to all, as to assay type: in vivo
Series [1] deals with Echinochloa crusgalli. Briefly: Greenhouse herbicidal activity and crop safety comparison (Test Example 2). To be noted: Rate 150 g/ha. A digest of the protocol: (§1)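 Fresh weight inhibition, banded into grades A to E (E <20%), was rated 14-21 days after foliar spraying of 3-6 leaf plants, or 14-30 days after a soil spray applied 24 h post-sowing.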
Series [2] deals with Leptochloa chinensis. Described as above. The settings on record: Rate 150 g/ha. A digest of the protocol: as §1
Series [3] concerns Oryza sativa subsp. indica. The series is described as above. The settings on record: Rate 150 g/ha. A digest of the protocol:
as §1

Series [4] concerns Oryza sativa subsp. japonica. The description is as above. To be noted: Rate 150 g/ha. An outline of the steps:
as §1

The next series has as its system Cyperus iria. Briefly: Greenhouse herbicidal activity assay, post-emergence. To be noted: Post-emergence test, rate 150 g a.i./hm^2, grade by fresh weight inhibition rate. An outline of the steps: (§2)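 Weeds were sown in nutrient soil in 7 cm pots and grown in a growth chamber to the 3-6 leaf stage, then foliar-sprayed, air-dried and returned to the chamber. Fresh weight inhibition was scored 14-21 days later in bands from A (≥80% to 100%) to E (<20%).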

In another series the test system is Digitaria sanguinalis. The series is described as above. The settings on record: Post-emergence test, rate 150 g a.i./hm^2, grade by fresh weight inhibition rate. An outline of the steps: as §2
Series [5] relates to Echinochloa crusgalli. Described as above. To be noted: Post-emergence test, rate 150 g a.i./hm^2, grade by fresh weight inhibition rate. An outline of the steps: as §2
In a further series the test system is Eclipta prostrata. The description is as above. The settings on record: Post-emergence test, rate 150 g a.i./hm^2, grade by fresh weight inhibition rate. A digest of the protocol:
as §2

For series [6], the system named is Leptochloa chinensis. Described as above. The settings on record: Post-emergence test, rate 150 g a.i./hm^2, grade by fresh weight inhibition rate. An outline of the steps:
as §2

SMILES strings stand for the structures.

Regarding `CCCS(=O)(=O)c1c(S(C)(=O)=O)ccc(C(=O)Nc2nnc(C(C)C)o2)c1Cl` [Compound 3-503, 2-chloro-N-(5-isopropyl-1,3,4-oxadiazol-2-yl)-4-(methylsulfonyl)-3-(propylsulfonyl)benzamide], the inhibition at 150 g/ha was in the range of 80 to 100% in the series with Echinochloa crusgalli [1] (Echinochloa crus-galli, read-out: Echinochloa crusgalli, control efficacy grading (fresh weight inhibition rate)) and 80 to 100% in the series with Leptochloa chinensis [2] (Dinebra chinensis, read-out: Leptochloa chinensis, control efficacy grading (fresh weight inhibition rate)). For the same compound, the “Oryza sativa subsp. indica, grading of fresh weight inhibition rate (crop safety)” value in [3] is listed as “E (Fresh weight inhibition rate<20%)”. In series [4], the “Oryza sativa subsp. japonica, grading of fresh weight inhibition rate (crop safety)” value is recorded as “E (Fresh weight inhibition rate<20%)”. The pest or weed control at 150 g/ha in the series on Cyperus iria (Cyperus iria, read-out: Control efficacy grade, Cyperus iria) was 80 to 100%; in the series on Digitaria sanguinalis (Digitaria sanguinalis, read-out: Control efficacy grade, Digitaria sanguinalis) it was 80 to 100%; in the series with Echinochloa crusgalli [5] (Echinochloa crus-galli, read-out: Control efficacy grade, Echinochloa crusgalli) it was 80 to 100%; in the series on Eclipta prostrata (Eclipta prostrata, read-out: Control efficacy grade, Eclipta prostrata), 80 to 100%; with Leptochloa chinensis [6] (Dinebra chinensis, read-out: Control efficacy grade, Leptochloa chinensis), 80 to 100%.
For the compound `CC(C)c1nnc(NC(=O)c2ccc(S(C)(=O)=O)c(S(=O)(=O)C(C)C)c2Cl)o1` [Compound 3-508], the “Echinochloa crusgalli, control efficacy grading (fresh weight inhibition rate)” value in the series on Echinochloa crusgalli [1] is “A (Fresh weight inhibition rate≥80% to 100%)”. In addition, the “Leptochloa chinensis, control efficacy grading (fresh weight inhibition rate)” value in the series on Leptochloa chinensis [2] is listed as “A (Fresh weight inhibition rate≥80% to 100%)”. The “Oryza sativa subsp. indica, grading of fresh weight inhibition rate (crop safety)” value in [3] is given as “E (Fresh weight inhibition rate<20%)”. In addition, in [4], the “Oryza sativa subsp. japonica, grading of fresh weight inhibition rate (crop safety)” value is “E (Fresh weight inhibition rate<20%)”. The “Control efficacy grade, Cyperus iria” value with Cyperus iria is recorded as “A (Fresh weight inhibition rate≥80% to 100%)”. For the same compound, in the series with Digitaria sanguinalis, the “Control efficacy grade, Digitaria sanguinalis” value is listed as “A (Fresh weight inhibition rate≥80% to 100%)”. The “Control efficacy grade, Echinochloa crusgalli” value with Echinochloa crusgalli [5] is reported as “A (Fresh weight inhibition rate≥80% to 100%)”. For the same compound, the “Control efficacy grade, Eclipta prostrata” value in the series on Eclipta prostrata was “A (Fresh weight inhibition rate≥80% to 100%)”. Moreover, the “Control efficacy grade, Leptochloa chinensis” value in the series on Leptochloa chinensis [6] is “A (Fresh weight inhibition rate≥80% to 100%)”.
In the case of `C=CCS(=O)(=O)c1c(S(C)(=O)=O)ccc(C(=O)Nc2nnc(C(C)C)o2)c1Cl` [Compound 3-574], the “Echinochloa crusgalli, control efficacy grading (fresh weight inhibition rate)” value in the series on Echinochloa crusgalli [1] is given as “A (Fresh weight inhibition rate≥80% to 100%)”. In addition, the “Leptochloa chinensis, control efficacy grading (fresh weight inhibition rate)” value in the series on Leptochloa chinensis [2] was “A (Fresh weight inhibition rate≥80% to 100%)”. Also, the “Oryza sativa subsp. indica, grading of fresh weight inhibition rate (crop safety)” value in [3] was “E (Fresh weight inhibition rate<20%)”. Also, the “Oryza sativa subsp. japonica, grading of fresh weight inhibition rate (crop safety)” value in [4] is listed as “E (Fresh weight inhibition rate<20%)”. In addition, the “Control efficacy grade, Cyperus iria” value in the series with Cyperus iria is “A (Fresh weight inhibition rate≥80% to 100%)”. Further, the “Control efficacy grade, Digitaria sanguinalis” value in the series on Digitaria sanguinalis is on record as “B (Fresh weight inhibition rate≥260% to <80%)”. In the series with Echinochloa crusgalli [5], the “Control efficacy grade, Echinochloa crusgalli” value is reported as “A (Fresh weight inhibition rate≥80% to 100%)”. The “Control efficacy grade, Eclipta prostrata” value in the series on Eclipta prostrata was “A (Fresh weight inhibition rate≥80% to 100%)”. Besides, the “Control efficacy grade, Leptochloa chinensis” value in the series with Leptochloa chinensis [6] is reported as “A (Fresh weight inhibition rate≥80% to 100%)”.
For the compound `CCCS(=O)(=O)c1c(S(C)(=O)=O)ccc(C(=O)Nc2nnc(C3CC3)o2)c1Cl` [Compound 3-619], the “Echinochloa crusgalli, control efficacy grading (fresh weight inhibition rate)” value with Echinochloa crusgalli [1] was “A (Fresh weight inhibition rate≥80% to 100%)”. Besides, the “Leptochloa chinensis, control efficacy grading (fresh weight inhibition rate)” value in the series on Leptochloa chinensis [2] is “A (Fresh weight inhibition rate≥80% to 100%)”. Also, the “Oryza sativa subsp. indica, grading of fresh weight inhibition rate (crop safety)” value in series [3] is recorded as “E (Fresh weight inhibition rate<20%)”. Also, the “Oryza sativa subsp. japonica, grading of fresh weight inhibition rate (crop safety)” value in series [4] was “E (Fresh weight inhibition rate<20%)”. For the same compound, the “Control efficacy grade, Cyperus iria” value with Cyperus iria is listed as “A (Fresh weight inhibition rate≥80% to 100%)”. Moreover, the “Control efficacy grade, Digitaria sanguinalis” value in the series with Digitaria sanguinalis was “A (Fresh weight inhibition rate≥80% to 100%)”. Further, the “Control efficacy grade, Echinochloa crusgalli” value in the series on Echinochloa crusgalli [5] was “A (Fresh weight inhibition rate≥80% to 100%)”. Further, the “Control efficacy grade, Eclipta prostrata” value with Eclipta prostrata is “A (Fresh weight inhibition rate≥80% to 100%)”. In addition, the “Control efficacy grade, Leptochloa chinensis” value with Leptochloa chinensis [6] was “A (Fresh weight inhibition rate≥80% to 100%)”.

As usually defined, the inhibition is the drop in the measured response relative to a control, in per cent.
